US10822325B2, “Human GLUT5 specific inhibitors and methods of treatment” (UNM RAINFOREST INNOVATIONS, priority 2015, dated 2020)
“Also recorded” adds a separate entry of the source.

Molecular target: T1, GlcPSe (Staphylococcus epidermidis, UniProt A0A0H2VG78)
T1 construct: made in house; host or cells: Escherichia coli JM1100 (pBAD); right-side-out membrane vesicles
T1 sequence (A0A0H2VG78 1-446): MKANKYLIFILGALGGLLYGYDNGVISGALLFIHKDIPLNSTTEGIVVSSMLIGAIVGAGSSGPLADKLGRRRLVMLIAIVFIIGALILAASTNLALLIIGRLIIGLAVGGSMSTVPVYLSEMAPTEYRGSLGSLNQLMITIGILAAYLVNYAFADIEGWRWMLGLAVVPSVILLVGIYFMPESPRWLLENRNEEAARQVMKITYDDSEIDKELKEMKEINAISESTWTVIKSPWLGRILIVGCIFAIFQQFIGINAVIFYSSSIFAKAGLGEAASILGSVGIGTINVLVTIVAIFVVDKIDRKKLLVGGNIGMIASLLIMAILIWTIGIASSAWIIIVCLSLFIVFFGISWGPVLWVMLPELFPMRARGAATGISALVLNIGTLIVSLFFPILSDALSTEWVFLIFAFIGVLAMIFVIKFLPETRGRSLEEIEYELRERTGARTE
Assay: Glucose uptake by GlcPSe in right-side-out vesicles of JM1100 E. coli cells
Format: biochemical
Conditions: 2 mM compound, RSO vesicles, 30 μM C14-glucose, one minute
Protocol: Glucose transport assay for GlcPSe, wild-type and F348H mutant, was performed as described previouslyl^16. GlcPSe was cloned into the pBAD vector (Invitrogen) with C-terminal 6×His tag. F348H mutation was done with the site-directed mutagenesis method^37. GlcPSe proteins were expressed in the glucose transporter deficient Escherichia coli strain JM1100. Cells were grown at 37° C., in Luria Broth medium, with 100 μg/mL ampicillin. Protein expression was induced with 0.3 mM L-arabinose at O.D.600 nm 0.6. After 3 hours, cells were harvested by centrifugation at 2,500 g for 5 min. The right-side-out (RSO) membrane vesicles of JM1100 E. coli cells were prepared as described previouslyl^16,39,40. Transport assay was initiated by the addition of ^14C-radiolabeled glucose (Moravek Biochemicals) to 50 μL RSO vesicles in 100 mM KPi buffer pH 7.5, at O.D.600 nm of 2.0. After one minute, the transport was stopped and the radioactivity was measured as described below. When inhibitors were used, they were incubated with RSO vesicles 1 minute before transport initiation.
Given the partial conservation of the MSNBA binding site in other GLUTs and GlcPSe, we checked whether MSNBA inhibits GLUT1-4 or GlcPSe. Glucose transport of GLUT1, GLUT2, GLUT3 and GLUT4 and fructose transport of GLUT2 were assayed by the entrance counter-flow method in proteoliposomes constructed with the respective recombinant human GLUT produced in insect cells. Glucose transport of GlcPSe was measured in right-side-out (RSO) vesicles of JM1100 E. coli cells (that lack endogenous glucose transport) expressing GlcPSe.

Structure (SMILES) | effect on GlcPSe glucose transport
CS(=O)(=O)c1ccc(Nc2ccc3c(c2)OCO3)c([N+](=O)[O-])c1 [MSNBA, N-[4-(methylsulfonyl)-2-nitrophenyl]-1,3-benzodioxol-5-amine] | did not affect; also recorded: did not influence
O=C(CCc1ccc(O)cc1)c1c(O)cc(O)cc1O [phloretin, reference compound] | inhibited
C=C1[C@@H](C)[C@H]2[C@H](Cc3ccccc3)NC(=O)[C@]23OC(=O)/C=C/[C@H](O)CCC[C@@H](C)C/C=C/[C@H]3[C@@H]1O [cytochalasin B, reference compound] | inhibited
